Species: Rattus norvegicus
Experiment: Open TG-GATES - Regimen: Single
Assay type: toxicity, organism-based, Sprague-Dawley
Set-up: regimen Single, gender Male, age 6 weeks
Conditions: in vivo, ip, route intraperitoneal injection; for APTT / Bas / Eos / Fbg / Hb / Ht / Lym / MCH / MCHC / MCV / Mono / Neu / PT / Plat / RBC / Ret / WBC: tissue Blood; for KIDNEY_L / KIDNEY_R / KIDNEY_TOTAL: tissue Kidney; for LIVER: tissue Liver; for A/G / ALP / ALT / AST / BUN / CRE / Ca / Cl / DBIL / GLC / IP / K / LDH / Na / PL / RALB / TBIL / TC / TG / TP / gamma-GTP: tissue Plasma
[1] = 0.003 mg/kg, 3 h, dose 3 ug/Kg, dose level Middle
[2] = 0.003 mg/kg, 6 h, dose 3 ug/Kg, dose level Middle
[3] = 0.003 mg/kg, 9 h, dose 3 ug/Kg, dose level Middle
[4] = 0.003 mg/kg, 24 h, dose 3 ug/Kg, dose level Middle
[5] = 0.01 mg/kg, 3 h, dose 10 ug/Kg, dose level High
[6] = 0.01 mg/kg, 6 h, dose 10 ug/Kg, dose level High
[7] = 0.01 mg/kg, 9 h, dose 10 ug/Kg, dose level High
[8] = 0.01 mg/kg, 24 h, dose 10 ug/Kg, dose level High

## H-KGDRLS-OH [TNF-ALPHA]
[1]
  TERMINAL_BW: 199 g
  APTT: 17.3 s
  Bas: 0%
  Eos: 0.4%
  Fbg: 265 mg/dL
  Hb: 13 g/dL
  Ht: 39.9%
  Lym: 70.4%
  MCH: 21.1 pg
  MCHC: 32.6%
  MCV: 64.9 fL
  Mono: 4.2%
  Neu: 23%
  PT: 15.9 s
  Plat: 112.9 x10_4/uL
  RBC: 614.6 x10_4/ul
  Ret: 9.2%
  WBC: 88.2 x10_2/uL
  KIDNEY_L: 0.9 g
  KIDNEY_R: 0.9 g
  KIDNEY_TOTAL: 1.8 g
  LIVER: 9.3 g
  A/G: 0.9
  ALP: 1480.4 IU/L
  ALT: 47.6 IU/L
  AST: 75.8 IU/L
  BUN: 10.8 mg/dL
  CRE: 0.2 mg/dL
  Ca: 10.8 mg/dL
  Cl: 104.8 meq/L
  DBIL: 0.01 mg/dL
  GLC: 162.2 mg/dL
  IP: 9.2 mg/dL
  K: 4.3 meq/L
  LDH: 68 IU/L
  Na: 141.6 meq/L
  PL: 137 mg/dL
  RALB: 2.5 g/dL
  TBIL: 0.052 mg/dL
  TC: 73 mg/dL
  TG: 61.8 mg/dL
  TP: 5.3 g/dL
  gamma-GTP: 1.4 IU/L
[2]
  TERMINAL_BW: 197.1 g
  APTT: 17.1 s
  Bas: 0%
  Eos: 0.4%
  Fbg: 321.4 mg/dL
  Hb: 13 g/dL
  Ht: 39.7%
  Lym: 63.4%
  MCH: 21.5 pg
  MCHC: 33%
  MCV: 65.1 fL
  Mono: 2.6%
  Neu: 32%
  PT: 15.1 s
  Plat: 110.6 x10_4/uL
  RBC: 610.4 x10_4/ul
  Ret: 8%
  WBC: 81.9 x10_2/uL
  KIDNEY_L: 0.9 g
  KIDNEY_R: 0.9 g
  KIDNEY_TOTAL: 1.8 g
  LIVER: 8.7 g
  A/G: 0.9
  ALP: 1155.6 IU/L
  ALT: 39.8 IU/L
  AST: 65.8 IU/L
  BUN: 8.6 mg/dL
  CRE: 0.2 mg/dL
  Ca: 10.7 mg/dL
  Cl: 105.6 meq/L
  DBIL: 0.008 mg/dL
  GLC: 170.4 mg/dL
  IP: 10.2 mg/dL
  K: 3.7 meq/L
  LDH: 72.8 IU/L
  Na: 143.4 meq/L
  PL: 147.6 mg/dL
  RALB: 2.5 g/dL
  TBIL: 0.06 mg/dL
  TC: 84.4 mg/dL
  TG: 27.2 mg/dL
  TP: 5.4 g/dL
  gamma-GTP: 1 IU/L
[3]
  TERMINAL_BW: 194.9 g
  APTT: 17.3 s
  Bas: 0%
  Eos: 0.4%
  Fbg: 380.6 mg/dL
  Hb: 12.9 g/dL
  Ht: 39.7%
  Lym: 66.2%
  MCH: 21.2 pg
  MCHC: 32.4%
  MCV: 65.5 fL
  Mono: 2.6%
  Neu: 29.8%
  PT: 15.4 s
  Plat: 104.9 x10_4/uL
  RBC: 606.6 x10_4/ul
  Ret: 8.3%
  WBC: 75.4 x10_2/uL
  KIDNEY_L: 0.9 g
  KIDNEY_R: 0.9 g
  KIDNEY_TOTAL: 1.8 g
  LIVER: 7.9 g
  A/G: 0.9
  ALP: 1301.4 IU/L
  ALT: 36.4 IU/L
  AST: 71.4 IU/L
  BUN: 7.6 mg/dL
  CRE: 0.2 mg/dL
  Ca: 10.6 mg/dL
  Cl: 105.6 meq/L
  DBIL: 0.004 mg/dL
  GLC: 159 mg/dL
  IP: 9.5 mg/dL
  K: 4 meq/L
  LDH: 46.6 IU/L
  Na: 142 meq/L
  PL: 155.4 mg/dL
  RALB: 2.5 g/dL
  TBIL: 0.062 mg/dL
  TC: 92.6 mg/dL
  TG: 25.2 mg/dL
  TP: 5.3 g/dL
  gamma-GTP: 1 IU/L
[4]
  TERMINAL_BW: 211 g
  APTT: 14.6 s
  Bas: 0%
  Eos: 1%
  Fbg: 361.4 mg/dL
  Hb: 12.8 g/dL
  Ht: 39.4%
  Lym: 77.6%
  MCH: 20.7 pg
  MCHC: 32.6%
  MCV: 63.6 fL
  Mono: 3.2%
  Neu: 14.8%
  PT: 15.5 s
  Plat: 115.8 x10_4/uL
  RBC: 619 x10_4/ul
  Ret: 8%
  WBC: 65.2 x10_2/uL
  KIDNEY_L: 0.9 g
  KIDNEY_R: 0.9 g
  KIDNEY_TOTAL: 1.8 g
  LIVER: 10 g
  A/G: 0.9
  ALP: 1666.2 IU/L
  ALT: 42.8 IU/L
  AST: 71.2 IU/L
  BUN: 16.4 mg/dL
  CRE: 0.2 mg/dL
  Ca: 11.1 mg/dL
  Cl: 106.8 meq/L
  DBIL: 0.01 mg/dL
  GLC: 177.8 mg/dL
  IP: 8.5 mg/dL
  K: 4.3 meq/L
  LDH: 74.6 IU/L
  Na: 142.4 meq/L
  PL: 155 mg/dL
  RALB: 2.6 g/dL
  TBIL: 0.042 mg/dL
  TC: 80.4 mg/dL
  TG: 80.8 mg/dL
  TP: 5.7 g/dL
  gamma-GTP: 1 IU/L
[5]
  TERMINAL_BW: 199.5 g
  APTT: 15.7 s
  Bas: 0.2%
  Eos: 0.4%
  Fbg: 279.2 mg/dL
  Hb: 13.2 g/dL
  Ht: 40.1%
  Lym: 75%
  MCH: 21.5 pg
  MCHC: 32.8%
  MCV: 65.3 fL
  Mono: 4.4%
  Neu: 18.8%
  PT: 15.4 s
  Plat: 115.5 x10_4/uL
  RBC: 615.2 x10_4/ul
  Ret: 9.2%
  WBC: 82.2 x10_2/uL
  KIDNEY_L: 0.9 g
  KIDNEY_R: 0.9 g
  KIDNEY_TOTAL: 1.7 g
  LIVER: 8.8 g
  A/G: 0.9
  ALP: 1307.2 IU/L
  ALT: 43.6 IU/L
  AST: 79.2 IU/L
  BUN: 10.4 mg/dL
  CRE: 0.2 mg/dL
  Ca: 10.7 mg/dL
  Cl: 105.8 meq/L
  DBIL: 0.01 mg/dL
  GLC: 167 mg/dL
  IP: 9.8 mg/dL
  K: 4 meq/L
  LDH: 71 IU/L
  Na: 142.4 meq/L
  PL: 141.2 mg/dL
  RALB: 2.4 g/dL
  TBIL: 0.062 mg/dL
  TC: 77.8 mg/dL
  TG: 50.4 mg/dL
  TP: 5.2 g/dL
  gamma-GTP: 1.2 IU/L
[6]
  TERMINAL_BW: 194.4 g
  APTT: 18.1 s
  Bas: 0%
  Eos: 0.2%
  Fbg: 349.4 mg/dL
  Hb: 13.2 g/dL
  Ht: 40.3%
  Lym: 62.4%
  MCH: 21 pg
  MCHC: 32.9%
  MCV: 63.8 fL
  Mono: 2.6%
  Neu: 34.2%
  PT: 15 s
  Plat: 106.9 x10_4/uL
  RBC: 632.2 x10_4/ul
  Ret: 7.9%
  WBC: 58.5 x10_2/uL
  KIDNEY_L: 0.9 g
  KIDNEY_R: 0.9 g
  KIDNEY_TOTAL: 1.8 g
  LIVER: 8.5 g
  A/G: 0.8
  ALP: 1422.6 IU/L
  ALT: 37.6 IU/L
  AST: 73 IU/L
  BUN: 8.6 mg/dL
  CRE: 0.2 mg/dL
  Ca: 10.8 mg/dL
  Cl: 105.4 meq/L
  DBIL: 0.008 mg/dL
  GLC: 170.8 mg/dL
  IP: 9.8 mg/dL
  K: 3.8 meq/L
  LDH: 67.2 IU/L
  Na: 143.2 meq/L
  PL: 162.2 mg/dL
  RALB: 2.5 g/dL
  TBIL: 0.06 mg/dL
  TC: 91.8 mg/dL
  TG: 40.2 mg/dL
  TP: 5.4 g/dL
  gamma-GTP: 1.4 IU/L
[7]
  TERMINAL_BW: 194.6 g
  APTT: 19.4 s
  Bas: 0%
  Eos: 0.6%
  Fbg: 371 mg/dL
  Hb: 13.4 g/dL
  Ht: 40.6%
  Lym: 69.8%
  MCH: 21.4 pg
  MCHC: 32.9%
  MCV: 64.8 fL
  Mono: 1.8%
  Neu: 26.8%
  PT: 15.3 s
  Plat: 105.5 x10_4/uL
  RBC: 627.6 x10_4/ul
  Ret: 8.3%
  WBC: 66.7 x10_2/uL
  KIDNEY_L: 0.9 g
  KIDNEY_R: 0.9 g
  KIDNEY_TOTAL: 1.7 g
  LIVER: 7.9 g
  A/G: 0.8
  ALP: 1174.4 IU/L
  ALT: 32.6 IU/L
  AST: 62.8 IU/L
  BUN: 7.2 mg/dL
  CRE: 0.2 mg/dL
  Ca: 10.8 mg/dL
  Cl: 104.4 meq/L
  DBIL: 0.004 mg/dL
  GLC: 167.2 mg/dL
  IP: 10.2 mg/dL
  K: 3.9 meq/L
  LDH: 55.2 IU/L
  Na: 141.6 meq/L
  PL: 159.2 mg/dL
  RALB: 2.5 g/dL
  TBIL: 0.064 mg/dL
  TC: 96.6 mg/dL
  TG: 22.2 mg/dL
  TP: 5.5 g/dL
  gamma-GTP: 1.4 IU/L
[8]
  TERMINAL_BW: 211.6 g
  APTT: 15.6 s
  Bas: 0.2%
  Eos: 0.8%
  Fbg: 323.4 mg/dL
  Hb: 13.1 g/dL
  Ht: 40.2%
  Lym: 80.4%
  MCH: 21.5 pg
  MCHC: 32.6%
  MCV: 65.8 fL
  Mono: 3%
  Neu: 15%
  PT: 15.5 s
  Plat: 116.4 x10_4/uL
  RBC: 610.2 x10_4/ul
  Ret: 8.5%
  WBC: 77.3 x10_2/uL
  KIDNEY_L: 1 g
  KIDNEY_R: 0.9 g
  KIDNEY_TOTAL: 1.9 g
  LIVER: 9.8 g
  A/G: 0.8
  ALP: 1565.6 IU/L
  ALT: 47.8 IU/L
  AST: 69.6 IU/L
  BUN: 15.4 mg/dL
  CRE: 0.2 mg/dL
  Ca: 11.1 mg/dL
  Cl: 106.6 meq/L
  DBIL: 0.012 mg/dL
  GLC: 190 mg/dL
  IP: 8.9 mg/dL
  K: 4.4 meq/L
  LDH: 93.6 IU/L
  Na: 142.2 meq/L
  PL: 156 mg/dL
  RALB: 2.6 g/dL
  TBIL: 0.042 mg/dL
  TC: 83.6 mg/dL
  TG: 76.2 mg/dL
  TP: 5.7 g/dL
  gamma-GTP: 1 IU/L
